# Measured values published in US9278963B2, “Pyrimidine hydroxy amide compounds as histone deacetylase inhibitors” (Acetylon Pharmaceuticals, Inc., priority 2013, dated 2016).
# Key:
# [1] = test system: SH-SY5Y neuroblastoma cells; assay: Neuroblastoma cell cycle by flow cytometry, SH-SY5Y; assay type: cell-based; conditions: for percent of the cell population in G2, S, G1 and Sub G1 phase: 72 hours, 0.5, 2 and 5 μM (ATRA 1 μM); for cell cycle stages and fold change of p21: 4 days
# Protocol: The following is a quick summary of the neuroblastoma cell cycle experiments. Adherent cells were plated into 12-well plates at 10^6 cells/well and allowed to adhere for 2-4 hours. Compounds were dispensed in DMSO at the indicated concentrations using an automated liquid handling system (Tecan D300) and incubated for the indicated times at 37° C. with 5% CO2. Cells were harvested with enzyme-free cell disassociation solution and washed with buffered saline. Cells were fixed overnight with 100% ethanol. Cell cycle was assessed by flow cytometry using the Molecular Probes FxCycle PI/RNase Staining Solution kit according to manufacture protocols.
# The protocol for the cell cycle experiments was as follows. The day before the experiment, the cells were fed in the flask by doubling the media. Then, the cells were harvested by adding non-enzymatic cell dissociation media and incubating at 37° C. for 15 minutes. Next, the cells were transferred to a 50 ml tube and pipet to create a single-cell suspension. The cells were then washed with PBS buffer. Then, the cells were resuspended in complete media at 5×10^5 cells per ml. Next, 2 ml of cells were transferred to 12-well plates. Then, the treatment compounds were dispensed into each well using the D300 liquid handler. The cells were incubated for the indicated time at 37° C. Then, the cells were harvested by adding 500 μl enzyme free cell dissociation solution and incubating at 37° C. for 15 minutes. Next, the cells were spun into a pellet and then washed with PBS. Then, 500 μl 100% EtOH was added and incubated at 4° C. overnight. Then, the cells were washed 3× with PBS. The cells were then resuspended in […] FxCycle PI/RNase solution, and incubated for 2-4 hours at room temperature. Finally, the cells were assayed by flow cytometry.
# SH-SY5Y neuroblastoma cells were treated with varying concentrations of either Compound X or Y, and/or ATRA (all trans retinoic acid). […] In addition, the fold change of p21 was also calculated. […] The HDACi/ATRA combination effects were modest, with little difference compared to single agents.
# [2] = test system: SK-N-BE(2) or SH-SY5Y neuroblastoma cells; assay: Neuroblastoma differentiation index; assay type: cell-based; conditions: for differentiation index, low-concentration ATRA: 0.25 μM ATRA, alone or with HDAC inhibitor; for differentiation index: varying concentrations, alone
# Protocol: SK-N-BE(2) or SH-SY5Y neuroblastoma cells were treated with varying concentrations of either Compound X or Y, and/or ATRA (all trans retinoic acid). The differentiation index was measured.
# SK-N-BE(2) or SH-SY5Y neuroblastoma cells were treated with varying concentrations of either Compound X or Y, and/or ATRA (all trans retinoic acid). The differentiation index was measured. As a control, SK-N-BE(2) or SH-SY5Y neuroblastoma cells were treated with varying concentrations of ATRA.
# HDAC1 = HDAC1 (Homo sapiens (Human), UniProt Q13547); assay: HDAC enzyme assay, HDAC1; assay type: biochemical
# Protocol: (§1) Compounds for testing were diluted in DMSO to 50 fold the final concentration and a ten point three fold dilution series was made. The compounds were diluted in assay buffer (50 mM HEPES, pH 7.4, 100 mM KCl, 0.001% Tween-20, 0.05% BSA, 20 μM TCEP) to 6 fold their final concentration. The HDAC enzymes (purchased from BPS Biosciences) were diluted to 1.5 fold their final concentration in assay buffer. The tripeptide substrate and trypsin at 0.05 μM final concentration were diluted in assay buffer at 6 fold their final concentration. The final enzyme concentrations used in these assays were 3.3 ng/ml (HDAC1), 0.2 ng/ml (HDAC2), 0.08 ng/ml (HDAC3) and 2 ng/ml (HDAC6). The final substrate concentrations used were 16 μM (HDAC1), 10 μM (HDAC2), 17 μM (HDAC3) and 14 μM (HDAC6).
# (§2) Five μl of compounds and 20 μl of enzyme were added to wells of a black, opaque 384 well plate in duplicate. Enzyme and compound were incubated together at room temperature for 10 minutes. Five μ1 of substrate was added to each well, the plate was shaken for 60 seconds and placed into a Victor 2 microtiter plate reader. The development of fluorescence was monitored for 60 min and the linear rate of the reaction was calculated. The IC50 was determined using Graph Pad Prism by a four parameter curve fit.
# HDAC2 = HDAC2 (Homo sapiens (Human), UniProt Q92769); assay: HDAC enzyme assay, HDAC2; assay type: biochemical
# Protocol: as §1, §2
# HDAC3 = HDAC3 (Homo sapiens (Human), UniProt O15379); assay: HDAC enzyme assay, HDAC3; assay type: biochemical
# Protocol: as §1, with “The HDAC enzymes (purchased from BPS Biosciences) were diluted to 1.5 fold their final concentration in assay buffer.” left out, “(HDAC6).” for “(HDAC6). The final substrate concentrations used were 16 μM (HDAC1), 10 μM (HDAC2), 17 μM (HDAC3) and 14 μM (HDAC6).”
# as §2
# HDAC6 = HDAC6 (Homo sapiens (Human), UniProt Q9UBN7); assay: HDAC enzyme assay, HDAC6; assay type: biochemical
# Protocol: as §1
# as §2, with “fit. The IC50 values obtained for several of the compounds of this invention are found in Table 1.” for “fit.”
# [3] = test system: human CD34+ bone marrow cells; assay: Cellular viability of cultured CD34+ bone marrow cells; conditions: 1 μM, treatment for 4 days
# [4] = test system: BE(2)-C neuroblastoma cells; assay: Neuroblastoma maturation gene expression, BE(2)-C; assay type: cell-based
# Protocol: (§3) The following is a quick summary of the HDAC neuroblastoma maturation experiments. Adherent cells were plated into 12- or 24-well plates at 10^6 cells/well and allowed to adhere for 2-4 hours. Compounds were dispensed in DMSO at the indicated concentrations using an automated liquid handling system (Tecan D300) and incubated for the indicated times at 37° C. with 5% CO2. Cells were harvested and RNA extracted using the Qiagen RNeasy Mini Kit according to manufacture protocols. The RNA was quantified and relative expression levels were assessed using the Applied Biosystems TaqMan RNA-to-Ct Kit according to manufacture protocols using the indicated TaqMan probes.
# (§4) The protocol for the maturation experiments was as follows. The day before the experiment, the cells were fed in the flask by doubling the media. The cells were then harvested by adding non-enzymatic cell dissociation media and incubating at 37° C. for 15 minutes. The cells were transferred to a 50 ml tube and pipet to create a single-cell suspension. The cells were washed with PBS buffer. The cells were then resuspended in complete media at 5×10^5 cells per ml. Next, 2 ml of cells were transferred to 24- or 12-well plates. The treatment compounds were then dispensed into each well using the D300 liquid handler. The cells were then incubated for the indicated time at 37° C. The cells were harvested by scraping the cells and transferring to a 2 ml tube. The cells were spun to form a pellet. Next, RNA was extracted using the Qiagen RNeasy Mini kit according to manufacture protocols. The RNA concentration was recorded. The relative RNA levels were assessed using the Applied Biosystems TaqMan RNA-to-Ct kit according to manufacture protocols using the indicated Taqman probes.
# [5] = test system: SH-SY5Y neuroblastoma cells; assay: Neuroblastoma maturation gene expression, SH-SY5Y; assay type: cell-based; conditions: 72 hours, 1 μM
# Protocol: as §3
# as §4, with “The treatment compounds were then dispensed into each well using the D300 liquid handler. The cells were then incubated for the indicated time at 37° C. The cells were harvested by scraping the cells and transferring to a 2 ml tube. The cells were spun to form a pellet. Next, RNA was extracted using the Qiagen RNeasy Mini kit according to manufacture protocols.” left out
# [6] = test system: SK-N-BE(2) neuroblastoma cells; assay: Neuroblastoma cell cycle and p21, SK-N-BE(2); assay type: cell-based; conditions: 4 days
# Protocol: SK-N-BE(2) neuroblastoma cells were treated with varying concentrations of either Compound X or Y, and/or ATRA (all trans retinoic acid). The percentage of the population of the cells at various stages of the cell cycle were measured after 4 days. In addition, the fold change of p21 was also calculated. […] The HDACi/ATRA combination effects were modest, with little difference compared to single agents.
# HDAC2, sequence (Q92769 whole entry): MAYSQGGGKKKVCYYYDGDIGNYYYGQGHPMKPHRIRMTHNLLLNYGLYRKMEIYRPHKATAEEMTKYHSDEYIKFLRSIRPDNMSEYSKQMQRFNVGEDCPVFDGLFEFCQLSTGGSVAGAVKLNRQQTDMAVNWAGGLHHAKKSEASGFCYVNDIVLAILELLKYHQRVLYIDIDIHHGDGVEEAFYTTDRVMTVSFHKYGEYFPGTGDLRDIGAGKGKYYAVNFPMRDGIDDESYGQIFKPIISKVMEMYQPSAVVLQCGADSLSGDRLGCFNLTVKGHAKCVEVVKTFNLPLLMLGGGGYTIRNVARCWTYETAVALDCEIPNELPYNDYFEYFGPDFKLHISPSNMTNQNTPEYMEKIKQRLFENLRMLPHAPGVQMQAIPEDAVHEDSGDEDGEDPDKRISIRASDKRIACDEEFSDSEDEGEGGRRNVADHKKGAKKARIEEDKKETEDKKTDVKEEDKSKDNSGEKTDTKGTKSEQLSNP
# HDAC6, sequence (Q9UBN7 whole entry): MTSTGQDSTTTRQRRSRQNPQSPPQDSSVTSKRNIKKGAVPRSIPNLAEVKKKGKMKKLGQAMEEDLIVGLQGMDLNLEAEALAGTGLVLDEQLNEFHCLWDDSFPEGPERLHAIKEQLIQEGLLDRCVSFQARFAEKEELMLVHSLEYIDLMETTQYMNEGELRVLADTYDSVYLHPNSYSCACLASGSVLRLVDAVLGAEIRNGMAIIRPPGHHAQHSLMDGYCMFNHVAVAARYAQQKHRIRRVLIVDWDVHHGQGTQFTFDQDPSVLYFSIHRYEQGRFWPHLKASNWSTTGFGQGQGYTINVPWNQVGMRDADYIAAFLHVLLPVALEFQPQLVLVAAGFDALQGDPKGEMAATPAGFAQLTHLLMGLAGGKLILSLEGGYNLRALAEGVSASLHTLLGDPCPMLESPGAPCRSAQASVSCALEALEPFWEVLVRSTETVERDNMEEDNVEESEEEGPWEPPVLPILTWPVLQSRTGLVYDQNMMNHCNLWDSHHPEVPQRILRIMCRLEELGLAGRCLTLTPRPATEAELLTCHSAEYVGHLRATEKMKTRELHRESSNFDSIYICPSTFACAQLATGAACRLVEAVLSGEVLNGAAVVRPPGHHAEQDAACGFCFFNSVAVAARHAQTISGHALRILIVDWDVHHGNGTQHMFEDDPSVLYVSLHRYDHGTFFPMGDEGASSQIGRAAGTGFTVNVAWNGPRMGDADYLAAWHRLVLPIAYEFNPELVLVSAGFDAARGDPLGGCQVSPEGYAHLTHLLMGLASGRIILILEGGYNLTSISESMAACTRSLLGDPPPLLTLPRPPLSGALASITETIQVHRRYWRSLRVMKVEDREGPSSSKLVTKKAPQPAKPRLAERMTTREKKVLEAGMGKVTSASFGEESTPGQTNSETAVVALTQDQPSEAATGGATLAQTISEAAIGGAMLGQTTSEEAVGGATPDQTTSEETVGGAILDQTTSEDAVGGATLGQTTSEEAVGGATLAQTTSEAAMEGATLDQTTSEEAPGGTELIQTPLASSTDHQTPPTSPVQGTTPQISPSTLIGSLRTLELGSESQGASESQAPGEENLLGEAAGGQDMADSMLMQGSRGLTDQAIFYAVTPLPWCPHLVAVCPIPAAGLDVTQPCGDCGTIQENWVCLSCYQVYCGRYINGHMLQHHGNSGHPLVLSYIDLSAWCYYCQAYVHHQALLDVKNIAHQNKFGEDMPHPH
# HDAC1, sequence (Q13547 whole entry): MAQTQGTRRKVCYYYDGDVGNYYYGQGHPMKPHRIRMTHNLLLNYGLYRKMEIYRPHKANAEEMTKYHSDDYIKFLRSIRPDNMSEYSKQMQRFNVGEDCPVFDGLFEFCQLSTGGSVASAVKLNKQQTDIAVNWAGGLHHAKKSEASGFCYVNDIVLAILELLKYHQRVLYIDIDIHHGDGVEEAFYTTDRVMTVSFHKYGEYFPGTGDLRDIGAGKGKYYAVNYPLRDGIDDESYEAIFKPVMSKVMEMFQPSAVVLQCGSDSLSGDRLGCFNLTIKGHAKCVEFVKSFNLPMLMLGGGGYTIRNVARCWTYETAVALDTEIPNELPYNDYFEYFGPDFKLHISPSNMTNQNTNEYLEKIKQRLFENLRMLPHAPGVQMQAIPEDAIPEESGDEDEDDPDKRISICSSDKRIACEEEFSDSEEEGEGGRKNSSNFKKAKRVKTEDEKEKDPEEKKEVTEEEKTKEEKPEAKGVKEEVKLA
# HDAC3, sequence (O15379 whole entry): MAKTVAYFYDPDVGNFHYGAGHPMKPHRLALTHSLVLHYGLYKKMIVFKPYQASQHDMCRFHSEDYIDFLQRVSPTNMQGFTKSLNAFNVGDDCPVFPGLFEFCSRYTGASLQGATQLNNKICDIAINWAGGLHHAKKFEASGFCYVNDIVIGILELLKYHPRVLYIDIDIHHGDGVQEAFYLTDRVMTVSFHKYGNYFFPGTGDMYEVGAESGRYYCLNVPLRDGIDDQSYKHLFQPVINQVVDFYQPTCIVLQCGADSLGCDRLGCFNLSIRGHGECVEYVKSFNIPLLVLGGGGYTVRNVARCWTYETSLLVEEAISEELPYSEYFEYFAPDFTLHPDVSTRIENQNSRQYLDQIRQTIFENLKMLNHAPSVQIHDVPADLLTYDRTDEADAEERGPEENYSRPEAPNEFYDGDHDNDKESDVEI
# HDAC3, sequence (Q9Y618 395-489 partner): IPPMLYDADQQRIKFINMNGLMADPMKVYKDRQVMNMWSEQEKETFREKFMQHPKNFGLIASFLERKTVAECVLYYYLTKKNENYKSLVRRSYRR
SMILES,IC50 (HDAC1),IC50 (HDAC2),IC50 (HDAC3),IC50 (HDAC6),"differentiation index, low-concentration ATRA [2]",other results
"CC1=C(/C=C/C(C)=C/C=C/C(C)=C/C(=O)O)C(C)(C)CCC1 [ATRA, all trans retinoic acid, reference compound]",–,–,–,–,sub-optimal,"percent of the cell population in G2, S, G1 and Sub G1 phase [1]: little impact on cell cycle"
"O=C(NO)c1cnc(NC2(c3ccccc3)CCN(S(=O)(=O)c3ccccc3)CC2)nc1 [Compound 023, N-hydroxy-2-((4-phenyl-1-(phenylsulfonyl)piperidin-4-yl)amino)pyrimidine-5-carboxamide]",844 nM,829 nM,3540 nM,4.6 nM,–,–
"O=C(CCCCCCNC(=O)c1cnc(N(c2ccccc2)c2ccccc2)nc1)NO [Compound A, 2-(diphenylamino)-N-(7-(hydroxyamino)-7-oxoheptyl) pyrimidine-5-carboxamide, reference compound]",–,–,–,–,–,decrease in cells viability [3]: 20 fold
"O=C(CCCCCCNC(=O)c1cnc(N(c2ccccc2)c2ccccc2Cl)nc1)NO [Compound Y, 2-((2-chlorophenyl)(phenyl)amino)-N-(7-(hydroxyamino)-7-oxoheptyl)pyrimidine-5-carboxamide]",–,–,–,–,potentiated 0.25 μM ATRA,cell cycle stages and fold change of p21 [1]: induced cell cycle arrest; differentiation index [2]: induced an increase in the differentiation index; cell cycle stages and fold change of p21 [6]: induced cell cycle arrest

# The next lines start with results.
IC50 (HDAC1),IC50 (HDAC2),IC50 (HDAC3),IC50 (HDAC6),SMILES,"differentiation index, low-concentration ATRA [2]",other results
22 nM,22 nM,761 nM,3.7 nM,"O=C(NO)c1cnc(NC2(c3ccccc3)CCN(C(=O)Nc3c(F)cccc3F)CC2)nc1 [Compound 024, 2-((1-((2,6-difluorophenyl)carbamoyl)-4-phenylpiperidin-4-yl)amino)-N-hydroxypyrimidine-5-carboxamide]",–,–
130 nM,103 nM,422 nM,12 nM,"C[C@@H](C(=O)N1CCC(C)(Nc2ncc(C(=O)NO)cn2)CC1)c1ccccc1 [Compound 027, (R)—N-hydroxy-2-((4-methyl-1-(2-phenylpropanoyl)piperidin-4-yl)amino)pyrimidine-5-carboxamide]",–,–
3 nM,2 nM,24 nM,2.8 nM,"O=C(NO)c1cnc(NC2(c3ccccc3)CCN(C(=O)Cc3c[nH]c4ccccc34)CC2)nc1 [Compound 028, 2-((1-(2-(1H-indol-3-yl)acetyl)-4-phenylpiperidin-4-yl)amino)-N-hydroxypyrimidine-5-carboxamide]",–,–
10 nM,9 nM,42 nM,5 nM,"O=C(NO)c1cnc(NC2(c3ccccc3)CCN(C(=O)Cc3cc4ccccc4[nH]3)CC2)nc1 [Compound 031, 2-((1-(2-(1H-indol-2-yl)acetyl)-4-phenylpiperidin-4-yl)amino)-N-hydroxypyrimidine-5-carboxamide]",–,–
6 nM,36 nM,445 nM,–,"Nc1ccc(-c2cccs2)cc1NC(=O)c1ccc2c(c1)cc(C1CC1)n2CCN1CCOCC1 [Compound X, N-(2-amino-5-(thiophen-2-yl)phenyl)-2-cyclopropyl-1-(2-morpholinoethyl)-1H-indole-5-carboxamide]",potentiated 0.25 μM ATRA,"fold change of genes associated with maturation ([4]; 72 hours, 1 μM): alters genes associated with maturation; fold change of genes associated with maturation ([4]; 4 days, 0.5, 1 and 3 μM): alters genes associated with maturation; fold change of genes associated with maturation [5]: alters genes associated with maturation; percent of the cell population in G2, S, G1 and Sub G1 phase [1]: induced similar cell cycle changes in all treatment groups; cell cycle stages and fold change of p21 [1]: induced cell cycle arrest; differentiation index [2]: induced an increase in the differentiation index; cell cycle stages and fold change of p21 [6]: induced cell cycle arrest"
